Measured values: patent publication US20090087845A1, “Genetic Markers Of True Low Birth Weight” (priority 2005, published 2009)
“And” between values parts separate entries of the source, which are not always exact repeats. Identical values can stand only once.

Test system: placental gene expression
Assay: Placental gene expression (Affymetrix Rat Genome Chip 230.2) after SSRI (fluoxetine) exposure throughout gestation
Type: in vivo
Description: Gene expression data from pregnant rats under different forms of dietary restriction was gathered. […] (N=8) • Group 2 (CR50): Rats Given 50% of their Normal Daily Intake of Food. (N=5) • Group 3 (CR70): Rats Given 70% of their Normal Daily Intake of Food. […] (N=6) Placentas from the rats of each Group were harvested on Day 21 of gestation. RNA was extracted and gene expression was measured based on hybridization of RNA to Affymetrix Rat Genome Chips™ (230.2) (Affymetrix, Santa Clara, Calif.).
In order to determine whether placental gene expression profiling can be used to identify other prenatal exposures such as toxicants and drugs, a group of rats with drug exposure was monitored as described above. […] As with control, CR50, CR70, and HF groups, placentas from the mothers were sampled after 21 days of gestation and gene expression monitored utilizing an Affymetrix Rat Genome Chip.

[1] = rat placenta, day 21 of gestation, individual animals of SSRI group

CNCCC(Oc1ccc(C(F)(F)F)cc1)c1ccccc1 (stereo not shown) [fluoxetine, Fluoxetine]
expression, probeset 1391042_at (placenta, SSRI-exposed samples): 7.197 and 7.167 and 6.844 and 6.389 and 6.757 and 6.835 | expression, probeset 1391078_at (placenta, SSRI-exposed samples): 9.617 and 9.614 and 9.751 and 9.434 and 10.05 and 9.264 | expression, probeset 1391376_at (placenta, SSRI-exposed samples): 7.297 and 7.473 and 6.881 and 6.738 and 6.838 and 6.654 | expression, probeset 1391555_at (placenta, SSRI-exposed samples): 7.012 and 7.728 and 6.644 and 6.541 and 6.178 and 6.968 | expression, probeset 1391709_at (placenta, SSRI-exposed samples): 4.661 and 4.684 and 4.722 and 4.806 and 4.713 and 4.47 | expression, probeset 1392028_at (placenta, SSRI-exposed samples): 6.162 and 6.747 and 6.346 and 6.242 and 6.323 and 6.159 | expression, probeset 1392231_at (placenta, SSRI-exposed samples): 6.879 and 7.148 and 7.615 and 7.767 and 7.913 and 7.35 | expression, probeset 1392936_at (placenta, SSRI-exposed samples): 8.882 and 8.406 and 9.262 and 8.975 and 9.393 and 8.807 | expression, probeset 1392950_at (placenta, SSRI-exposed samples): 3.949 and 4.094 and 3.999 and 4.085 and 4.164 and 3.919 | expression, probeset 1393104_at (placenta, SSRI-exposed samples): 5.321 and 5.704 and 5.504 and 5.333 and 5.921 and 5.58 | expression, probeset 1393266_at (placenta, SSRI-exposed samples): 4.99 and 5.174 and 4.982 and 4.609 and 4.824 and 4.636 | expression, probeset 1393517_at (placenta, SSRI-exposed samples): 6.631 and 6.746 and 6.287 and 6.483 and 6.515 and 6.633 | expression, probeset 1393539_at (placenta, SSRI-exposed samples): 6.157 and 5.169 and 4.952 and 5.172 and 5.083 and 5.053 | expression, probeset 1393580_at (placenta, SSRI-exposed samples): 5.687 and 6.03 and 5.819 and 5.753 and 6.108 and 5.967 | expression, probeset 1393752_at (placenta, SSRI-exposed samples): 6.208 and 6.548 and 6.148 and 6.455 and 6.651 and 6.417 | expression, probeset 1393798_at (placenta, SSRI-exposed samples): 3.547 and 3.62 and 3.802 and 3.629 and 3.836 and 3.782 | expression, probeset 1393853_at (placenta, SSRI-exposed samples): 5.346 and 5.933 and 5.865 and 5.835 and 5.821 and 5.912 | expression, probeset 1393939_at (placenta, SSRI-exposed samples): 4.71 and 4.865 and 4.742 and 4.586 and 4.592 and 4.507 | expression, probeset 1393989_at (placenta, SSRI-exposed samples): 5.99 and 6.475 and 6.07 and 6.001 and 6.425 and 6.268 | expression, probeset 1394361_a_at (placenta, SSRI-exposed samples): 4.204 and 4.507 and 4.247 and 4.097 and 4.402 and 4.275 | expression, probeset 1394414_at (placenta, SSRI-exposed samples): 9.565 and 9.667 and 9.428 and 9.394 and 9.769 and 9.655 | expression, probeset 1394498_at (placenta, SSRI-exposed samples): 5.626 and 5.476 and 5.778 and 5.78 and 5.589 and 5.688 | expression, probeset 1394762_at (placenta, SSRI-exposed samples): 3.748 and 3.837 and 3.727 and 3.741 and 3.941 and 3.853 | expression, probeset 1394790_at (placenta, SSRI-exposed samples): 6.185 and 6.363 and 6.208 and 6.069 and 6.016 and 6.008 | expression, probeset 1395303_at (placenta, SSRI-exposed samples): 3.284 and 3.242 and 3.289 and 3.3 and 3.261 and 3.274 | expression, probeset 1395316_at (placenta, SSRI-exposed samples): 6.786 and 6.744 and 6.399 and 5.525 and 5.977 and 6.48 | expression, probeset 1395875_at (placenta, SSRI-exposed samples): 7.411 and 7.212 and 7.607 and 7.667 and 7.918 and 7.66 | expression, probeset 1395951_at (placenta, SSRI-exposed samples): 4.46 and 4.582 and 4.341 and 4.395 and 4.516 and 4.568 | expression, probeset 1395970_at (placenta, SSRI-exposed samples): 4.781 and 4.846 and 4.597 and 4.342 and 4.707 and 4.733 | expression, probeset 1396104_at (placenta, SSRI-exposed samples): 5.464 and 5.416 and 5.468 and 5.564 and 5.567 and 5.601 | expression, probeset 1396326_at (placenta, SSRI-exposed samples): 5.928 and 5.926 (2×) and 5.857 and 6.008 and 5.802 | expression, probeset 1397116_at (placenta, SSRI-exposed samples): 3.723 and 3.556 and 3.711 and 3.773 and 3.705 and 3.589 | expression, probeset 1397187_at (placenta, SSRI-exposed samples): 5.847 and 6.088 and 6.024 and 5.915 and 5.91 and 5.886 | expression, probeset 1397500_x_at (placenta, SSRI-exposed samples): 6.721 and 7.079 and 6.818 and 6.587 and 6.983 and 6.477 | expression, probeset 1397676_at (placenta, SSRI-exposed samples): 6.024 and 6.128 and 5.935 and 6.174 and 6.311 and 5.898 | expression, probeset 1397738_at (placenta, SSRI-exposed samples): 4.159 and 4.154 and 4.198 and 4.197 and 4.131 and 4.271 | expression, probeset 1397834_at (placenta, SSRI-exposed samples): 6.223 and 6.44 and 5.752 and 5.565 and 5.81 and 5.978 | expression, probeset 1397911_at (placenta, SSRI-exposed samples): 5.777 and 6.103 and 5.669 and 5.522 and 5.664 and 5.597 | expression, probeset 1397956_at (placenta, SSRI-exposed samples): 5.497 and 5.765 and 4.575 and 4.745 and 5.255 and 5.147 | expression, probeset 1398025_at (placenta, SSRI-exposed samples): 6.981 and 7.045 and 6.561 and 6.889 and 6.773 and 6.868 | expression, probeset 1398196_at (placenta, SSRI-exposed samples): 5.275 and 5.259 and 5.614 and 5.101 and 5.599 and 5.566 | expression, probeset 1398208_s_at (placenta, SSRI-exposed samples): 6.67 and 6.822 and 6.248 and 6.32 and 5.983 and 6.359 | expression, probeset 1398571_x_at (placenta, SSRI-exposed samples): 5.476 and 5.783 and 5.339 and 5.581 and 5.638 and 5.597 | number of probe sets whose expression was altered by exposure (rat placenta, day 21 of gestation, approximately 10 mg/kg/day in drinking water throughout pregnancy, vs control): 281 probe sets | Log base 2 expression for G6 (probe set 1369132, solute carrier 18, member 2) [1]: 8.97 log base 2 and 9.76 log base 2 and 8.56 log base 2 and 8.71 log base 2 and 8.41 log base 2 and 9.1 log base 2 | Log base 2 expression for G7 (probe set 1368474, vascular adhesion molecule 1) [1]: 5.83 log base 2 and 6.83 log base 2 and 5.81 log base 2 and 5.78 log base 2 and 6.05 log base 2 | Log base 2 expression for G8 (probe set 1388116, collagen type 1 alpha) [1]: 8.34 log base 2 and 8.25 log base 2 and 7.56 log base 2 and 7.7 log base 2 and 7.57 log base 2 and 7.69 log base 2 | Log base 2 expression for G9 (probe set 1368558, allograft inflammatory factor 1) [1]: 5.07 log base 2 and 5.61 log base 2 and 6.11 log base 2 and 5.3 log base 2 and 5.39 log base 2 | Log base 2 expression for G10 (probe set 1387796, arachidonate 12 lipoxygenase) [1]: 7.19 log base 2 and 8.37 log base 2 and 8.23 log base 2 and 6.76 log base 2 and 8.03 log base 2
